Assay [1] concerns SMN2 full length and Δ7 mRNA. Nature of the assay: Endogenous SMN2 mRNA RT-qPCR splicing assay in cultured cells. The format is cell-based, human. As to conditions: 24 hr, FIG. 4. As for the experimental part:
Endogenous SMN2 mRNA RT-qPCR Splicing Assay in Cultured Cells
The reverse transcription-quantitative PCR-based (RT-qPCR) assay is used to quantify the levels of the SMN2 full length and Δ7 mRNA in primary cells and cell lines containing the SMN2 gene treated with a test compound.
Protocol. GM03813 SMA patient cells (5,000 cells/well) are seeded in 200 μL, of cell culture medium (DMEM plus 10% FBS) in 96-well flat-bottom plates and the plate is immediately swirled to ensure proper dispersal of cells, forming an even monolayer of cells. Cells are allowed to attach for at least 4-6 hrs. Test compounds are serially diluted 3.16-fold in 100% DMSO to generate a 7-point concentration curve. A solution of test compound (1 μL, 200× in DMSO) is added to each test well and 1 μL, DMSO is added to each control well. The plate is incubated for 24 hrs in a cell culture incubator (37° C., 5% CO2, 100% relative humidity). The cells are then lysed in Cells-To-Ct lysis buffer and the lysate is stored at −80° C.
SMN2-specific spliced products and GAPDH mRNA are identified using the following primers and probes in Table 5. […] Since the SMA patient cells used in Example 3 contain only the SMN2 gene, RT-qPCR can quantify only SMN2 full-length and Δ7 mRNA. […]
The increase of SMN2 FL and decrease in SMN2 Δ7 mRNA relative to those in cells treated with vehicle control are determined from real-time PCR data using a modified ΔΔCt method (as described in Livak and Schmittgen, Methods, 2001, 25:402-8). The amplification efficiency (E) is calculated from the slope of the amplification curve for SMN2 FL, SMN2 Δ7, and GAPDH individually. The abundance of SMN2 FL, SMN2 Δ7 and GAPDH mRNA are then calculated as (1+E)^−Ct, where Ct is the threshold value for each amplicon. […]

Assay [2] has as its system gems (Smn-dependent nuclear speckles) in SMA patient fibroblast cells. In words: Gems count (Smn-dependent nuclear speckle count) assay. The format is cell-based, human. The settings on record: Type 1 SMA patient fibroblasts, 48 hour, fluorescence microscopy, relative to DMSO, FIG. 7. The source says:
Gems Count (Smn-Dependent Nuclear Speckle Count) Assay
The level of Smn protein directly correlates with the amount of nuclear foci, also known as gems, produced upon staining the cell with a fluorescently labeled anti-Smn antibody (Liu and Dreyfuss, EMBO J., 1996, 15:3555). Gems are multi-protein complexes whose formation is nucleated by the Smn protein and the gems count assay is used to evaluate the level of Smn protein in the cell. As described herein, the gems count assay is used to quantify the level of Smn protein in SMA patient fibroblast cells treated with a test compound.
Protocol: Cells are thawed and incubated in DMEM-10% FBS for 72 hours, then trypsinized, counted and resuspended to 100,000 cells/mL in DMEM-10% FBS. The cell suspension (2 mL) is plated in a 6-well cell culture plate with a sterile cover slip and incubated for 3 to 5 hours. Test compounds are serially diluted 3.16-fold in 100% DMSO to generate a 7-point dilution curve. […]
Cell culture medium is aspirated from the wells containing cover slips and gently washed three times with cold PBS. […] The number of gems is counted per ≧150 nuclei and % activation is calculated using DMSO and 10 nM bortezomib as controls. For each test compound, the cells are examined at all wavelengths to identify test compounds with inherent fluorescence.

The mark [3] stands for this setting: GM03813 Type 1 SMA patient fibroblasts, increasing concentrations.

Structures are written as SMILES. “Also recorded” adds a separate entry of the source.

`COc1ccc(-c2cc(=O)c3cc(N4CCN[C@@H](C)C4)ccc3o2)cc1F` [Cpd 38, 2-(3-fluoro-4-methoxyphenyl)-6-[(3S)-3-methylpiperazin-1-yl]-4H-chromen-4-one]: in assay [1] (setting [3]), the “SMN2 FL mRNA relative to vehicle” value is reported as “progressively more SMN2 FL mRNA” and the “SMN2 Δ7 mRNA relative to vehicle” value is on record as “less SMN2 Δ7 mRNA”. In addition, the SMN2 alternative splicing result in assay [1] (Type 1 SMA patient fibroblasts, rising concentrations) is on record as “correction of SMN2 alternative splicing”. Further, the “nuclear speckle counts (gems)” value in assay [2] is on record as “progressively more gems relative to cells treated with DMSO; also recorded: increase in nuclear speckle counts (gems)”.

Source of the values: patent publication US9914722B2, “Compounds for treating spinal muscular atrophy” (PTC Therapeutics Inc., priority 2012, dated 2018).
